Earlier results, collected in US12521484B2, “Irrigation system and methods of use” (Osteal Therapeutics, Inc., priority 2023, dated 2026).

Tests used:
[1] = instillation of 50,000-100,000 μg/mL once or twice daily into the joint space; multiple patients
[2] = test system: multiple common PJI organisms

CN[C@H](CC(C)C)C(=O)N[C@H]1C(=O)N[C@@H](CC(N)=O)C(=O)N[C@H]2C(=O)N[C@H]3C(=O)N[C@H](C(=O)N[C@H](C(=O)O)c4cc(O)cc(O)c4-c4cc3ccc4O)[C@H](O)c3ccc(c(Cl)c3)Oc3cc2cc(c3O[C@@H]2O[C@H](CO)[C@@H](O)[C@H](O)[C@H]2O[C@H]2C[C@](C)(N)[C@H](O)[C@H](C)O2)Oc2ccc(cc2Cl)[C@H]1O [vancomycin]
serum concentrations [1]: exceeding safe limits | minimum biofilm eradication concentration (MBEC) [2]: greater than 4,000 μg/mL
